“Also recorded” adds a separate entry of the source. Counter-ions that a name gives are not always drawn. Like-named read-outs stand apart in the source and are kept apart here.
Key:
recombinant HIV-1YU2 = assay: Activation of viral infectivity in CD4-negative Cf2Th-CCR5 cells; type: cell-based; conditions: for enhancement of viral infectivity in CD4 deficient cells: YU2, CD4-negative, CCR5-expressing cells
HIV-1YU2 virus = assay: Single-round infection of Cf2Th-CD4/CCR5 cells by luciferase-expressing HIV-1YU2 virus; type: cell-based; conditions: for inhibition of entry of YU2 and ADA viruses: CD4- and CCR5-expressing cells
Protocol: (§1) The calorimetric cell (approximately 1.4 mL), containing gp120 from the YU2 strain dissolved in PBS (Roche Diagnostics GmbH, Mannheim, Germany), pH 7.4 with 2% DMSO, was titrated with the different inhibitors dissolved in the same buffer.
(§2) Compounds were dissolved in dimethyl sulfoxide (DMSO), and stored at 10 mM concentrations at −20° C. The compounds were diluted in Dulbecco Modified Eagle Medium (DMEM, Invitrogen) to create 1 mM solutions before use. Soluble CD4 (sCD4) was purchased from ImmunoDiagnostics (Woburn, Mass.). Human 293T embryonic kidney and canine Cf2Th thymocytes (ATCC) were grown at 37° C. and 5% CO2 in DMEM (Invitrogen) containing 10% fetal bovine serum (Sigma) and 100 μg/mL of penicillin-streptomycin (Meditech, Inc.). Cf2Th cells stably expressing human CD4 and either CCR5 or CXCR4 (Babcock et al., 2001, Mirzabekov et al., 1999) were grown in medium supplemented with 0.4 mg/mL of G418 (Invitrogen) and 0.20 mg/mL of hygromycin B (Roche Diagnostics). Using the Effectene transfection reagent (Qiagen), 293T human embryonic kidney cells were cotransfected with plasmids expressing the pCMVΔP1ΔenvpA HIV-1 Gag-Pol packaging construct, the wild-type or mutant HIV-1YU2 envelope glycoproteins or the envelope glycoproteins of the control amphotropic murine leukemia virus (A-MLV), and the firefly luciferase-expressing vector at a DNA ratio of 1:1:3 μg. For the production of viruses pseudotyped with the A-MLV glycoprotein, a rev-expressing plasmid was added. The single-round, replication-defective viruses in the supernatants were harvested 24-30 hours after transfection, filtered (0.45 μm), aliquoted, and frozen at −80° C. until further use. The reverse transcriptase (RT) activities of all viruses were measured as described previously (Rho et al., 1981).
(§3) Cf2Th/CD4-CCR5 or Cf2Th/CD4-CXCR4 target cells were seeded at a density of 6×10^3 cells/well in 96-well luminometer-compatible tissue culture plates (Perkin Elmer) 24 h before infection. On the day of infection, (1 to 100 μM) was added to recombinant viruses (10,000 reverse transcriptase units) in a final volume of 50 μL and incubated at 37° C. for 30 minutes. The medium was removed from the target cells, which were then incubated with the virus-drug mixture for 2-4 hours at 37° C. At the end of this time point, complete medium was added to a final volume of 150 μL and incubated for 48 hours at 37° C. The medium was removed from each well, and the cells were lysed with 30 μL of passive lysis buffer (Promega) by three freeze-thaw cycles.

[1] = molecular target: T1, gp120 from the YU2 strain (Human immunodeficiency virus type 1 group M subtype B, UniProt P35961); assay: biochemical; type: binding, HIV-1
Protocol: as §1
Analogue binding to full-length gp120 from the YU2 strain was next characterized by isothermal titration calorimetry to assess the enthalpic and entropic contributions to binding affinity (FIG. 7 and FIG. 3c). […] Schön, A. et al. Biochemistry 45, 10973-80 (2006). […] Schön, A. et al. Chem Biol Drug Des: 77, 161-165 (2011).
Isothermal titration calorimetric experiments were performed using a high-precision VP-ITC titration calorimetric system from MicroCal LLC. (Northampton, Mass.). The calorimetric cell (˜1.4 mL), containing gp120 at a concentration of about 2 μM dissolved in PBS, pH 7.4 (Roche Diagnostics GmbH), with 2% DMSO, was titrated with the different compounds dissolved in the same buffer at concentrations of 80-130 μM. The compound solution was added in aliquots of 10 μL at pre-set intervals. All solutions were degassed to avoid any formation of bubbles in the calorimeter during stirring. All experiments were performed at 25° C. The heat evolved upon injection of compound was obtained from the integral of the calorimetric signal. The heat associated with the binding reaction was obtained by subtracting the heat of dilution from the heat of reaction. The individual binding heats were plotted against the molar ratio, and the values for the enthalpy change (ΔH) and association constant, Ka (Kd=1/Ka), were obtained by nonlinear regression of the data.

[2] = test system: amphotropic murine leukemia virus (A-MLV); assay: Specificity control: infection by virus pseudotyped with A-MLV envelope glycoproteins; type: cell-based; conditions: for specificity: inhibition of A-MLV entry: either cell type
Protocol: as §1
(§4) The recombinant viruses employed were pseudotyped with HIV-1 envelope glycoproteins derived from either an X4, laboratory-adapted HXBc2 isolate, or the R5, primary YU2 isolate. As a control for specificity, the viruses were pseudotyped with the envelope glycoproteins of the amphotropic murine leukemia virus (A-MLV), an unrelated retrovirus.
as §2, §3

[3] = test system: clade C Env-pseudoviruses; assay: Neutralization of Env-pseudoviruses in TZM-bl cells, clade C; type: cell-based, HIV-1; conditions: for neutralization breadth: clade C
Protocol: (§5) HIV-1 Env-pseudoviruses were prepared by transfecting 293T cells with 10 μg of rev/env expression plasmid and 30 μg of an env-deficient HIV-1 backbone vector (pSG3Δenv), using Fugene 6 transfection reagents (Invitrogen). Pseudovirus-containing culture supernatants were harvested two days after transfection, filtered (0.45 μm), and stored at −80° C. or in the vapor phase of liquid nitrogen. Neutralization was measured using HIV-1 Env-pseudoviruses to infect TZM-b1 cells as described previously (Li et al., 2005; Li et al., 2006; Seaman et al., 2010; Wu et al., 2009) with minor modifications. Briefly, the test reagent (DMJ-I-228, NBD556, or CD4-Ig) were diluted in complete media containing 10% DMSO. Then 40 μL of virus was added to 10 μL of serial diluted test reagent in duplicate wells of a 96-well flat bottom culture plate, and the virus-reagent mix was incubated for 30 min at 37° C. To keep assay conditions constant, sham media containing 10% DMSO was used in place of test reagent in specified control wells. The virus input was set at a multiplicity of infection of approximately 0.01-0.1, which generally results in 100,000 to 400,000 relative light units (RLU) in a luciferase assay (Promega, Madison, Wis.). The test reagent concentrations were defined at the point of incubation with virus supernatant. Neutralization curves were fit by nonlinear regression using a 5-parameter hill slope equation as previously described (Seaman et al., 2010).
(§6) To assess further the HIV-1 neutralization breadth and potency, we assayed 1, (+)-3, (+)-4 against 42 diverse strains of clades B and C Env-pseudoviruses (data not shown).

[4] = test system: clade B Env-pseudoviruses; assay: Neutralization of Env-pseudoviruses in TZM-bl cells, clade B; type: cell-based, HIV-1; conditions: for neutralization breadth: clade B
Protocol: as §5, §6

YU2 S375W virus = assay: Viral inhibition with the cavity filling YU2 mutant S375W; type: cell-based, HIV-1
Protocol: Then, the capacity of DMJ-I-228 (10) to bind within the Phe43 cavity was assessed by measuring viral inhibition in the context of the cavity filling YU2 mutant S375W.

[5] = molecular target: T1, gp120 from the YU2 strain; set-up: species or system HIV-1; conditions: from temperature dependence of the binding enthalpy
[6] = test system: mono-tropic (HXBc2) and dual tropic (89.6 and KB9) viruses; assay: Inhibition of entry on cells co-expressing CD4 and CXCR4; type: cell-based, HIV-1; conditions: Human immunodeficiency virus 1, read-out: IC50 of entry inhibition
Protocol: as §4
Compounds were dissolved in dimethyl sulfoxide (DMSO), and stored at 10 mM concentrations at −20° C. The compounds were diluted in Dulbecco Modified Eagle Medium (DMEM, Invitrogen) to create 1 mM solutions before use. Soluble CD4 (sCD4) was purchased from ImmunoDiagnostics (Woburn, Mass.). Human 293T embryonic kidney and canine Cf2Th thymocytes (ATCC) were grown at 37° C. and 5% CO2 in DMEM (Invitrogen) containing 10% fetal bovine serum (Sigma) and 100 μg/mL of penicillin-streptomycin (Meditech, Inc.). Cf2Th cells stably expressing human CD4 and either CCR5 or CXCR4 (Babcock et al., 2001, Mirzabekov et al., 1999) were grown in medium supplemented with 0.4 mg/mL of G418 (Invitrogen) and 0.20 mg/mL of hygromycin B (Roche Diagnostics). […] The reverse transcriptase (RT) activities of all viruses were measured as described previously (Rho et al., 1981). […]

gp120 = gp120 (Human immunodeficiency virus type 1 group M subtype B, UniProt P35961); conditions: previously reported, cited from earlier work
[7] = Human immunodeficiency virus 1, TZM-bl, read-out: IC50 GMT

CNC(=O)C(NC(=O)C(=O)Nc1ccc(Cl)c(F)c1)c1ccccc1 (centres unmarked)
Enhancement of viral infection of CD4− cells (recombinant HIV-1YU2; Example 24 table): 0.00
IC50 (HIV-1YU2 virus; Human immunodeficiency virus 1, Cf2Th-CD4/CCR5, read-out: IC50 of HIV-1 on CD4^+ cells): 70 µM
ΔG ([1]; Example 24 table): -7.6 kcal/mol
ΔH ([1]; Example 24 table): -9.2 kcal/mol
−TΔS ([1]; Example 24 table): +1.6 kcal/mol
Kd ([1]; Example 24 table, read-out: Kd): 2.5 µM
IC50 ([2]; Murine leukemia virus, read-out: IC50 of A-MLV on CD4^+ cells): 91.7 µM

N=C(N)NC[C@H]1Cc2ccccc2[C@@H]1NC(=O)C(=O)Nc1ccc(Cl)c(F)c1 [(+)-4, (+)-N^1-(4-Chloro-3-fluorophenyl)-N^2-(trans-2-(guanidinomethyl)indan-1-yl)oxalamide formate salt]
IC50 [3, 7]: 14 µM
neutralization breadth [3]: 59%
IC50 [4, 7]: 1.7 µM
neutralization breadth [4]: 100%
improvement over (+)-3 based on IC50 titers ([4]; clade B viruses): 60%
improvement over (+)-3 based on IC80 titers ([4]; clade B viruses): 1.5 fold
IC50 (HIV-1YU2 virus; Human immunodeficiency virus 1, CCR5, read-out: IC50 of viral entry, YU2): 3.1 ± 0.6 µM
Kd ([1]; ITC, full-length gp120, read-out: Kd): 0.11 µM

N[C@@H]1Cc2ccccc2[C@H]1NC(=O)C(=O)Nc1ccc(Cl)c(F)c1 [AWS-I-45, N^1-((1R,2R)-2-amino-2,3-dihydro-1H-inden-1-yl)-N^2-(4-chloro-3-fluorophenyl)oxalamide]
binding affinity compared to TS-II-224 (2) ([1]; ITC): three-fold loss in affinity
specificity: inhibition of A-MLV entry [2]: non-specificity

N[C@H]1Cc2ccccc2[C@@H]1NC(=O)C(=O)Nc1ccc(Cl)c(F)c1 [AWS-I-50]
binding affinity compared to TS-II-224 (2) ([1]; ITC): three-fold loss in affinity
entropy contribution −TΔS ([1]; ITC, 25° C.): -7.6 kcal/mol
specificity: inhibition of A-MLV entry [2]: non-specificity

N=C(N)N[C@@H]1Cc2ccccc2[C@H]1NC(=O)C(=O)Nc1ccc(Cl)c(F)c1 [AWS-I-169]
neutralization breadth [3]: 100%
neutralization breadth [4]: 100%
enhancement of viral infectivity in CD4 deficient cells (recombinant HIV-1YU2): did not enhance viral infectivity; also recorded: did not enhance entry
inhibition of entry of YU2 and ADA viruses (HIV-1YU2 virus): inhibited the entry
binding affinity compared to TS-II-224 (2) ([1]; ITC): comparable affinity
enthalpy change ΔH ([1]; ITC, 25° C.): -19.4 kcal/mol
entropy contribution −TΔS ([1]; ITC, 25° C.): -10.4 kcal/mol
specificity: inhibition of A-MLV entry [2]: did not inhibit A-MLV entry
sensitivity of YU2 S375W virus to compound (YU2 S375W virus): completely resistant
change in heat capacity [5]: −817±15 cal/(K×mol)
IC50 [6]: 6 to 30 µM

N=C(N)N[C@H]1Cc2ccccc2[C@@H]1NC(=O)C(=O)Nc1ccc(Cl)c(F)c1 [DMJ-I-228]
neutralization breadth [3]: 100%
neutralization breadth [4]: 100%
enhancement of viral infectivity in CD4 deficient cells (recombinant HIV-1YU2): did not enhance viral infectivity; also recorded: did not enhance entry
inhibition of entry of YU2 and ADA viruses (HIV-1YU2 virus): inhibited the entry
binding affinity compared to TS-II-224 (2) ([1]; ITC): comparable affinity
enthalpy change ΔH ([1]; ITC, 25° C.): -14.9 kcal/mol
entropy change ΔS ([1]; ITC, 25° C.): −20 cal/(K×mol)
entropy contribution −TΔS ([1]; ITC, 25° C.): -5.9 kcal/mol
Kd ([1]; ITC, 25° C., read-out: Kd (binding affinity)): 0.25 µM
specificity: inhibition of A-MLV entry [2]: did not inhibit A-MLV entry
sensitivity of YU2 S375W virus to compound (YU2 S375W virus): completely resistant
IC50 [6]: 6 to 30 µM

CC1(C)CC(NC(=O)C(=O)Nc2ccc(Cl)cc2)CC(C)(C)N1 [NBD-556]
enthalpy change (gp120; 25° C.): -24.5 kcal/mol
unfavorable entropy change −TΔS, contribution to Gibbs energy (gp120): 17.1 kcal/mol

O=C(Nc1ccc(Cl)c(F)c1)C(=O)N[C@H]1c2ccccc2C[C@H]1O [TK-II-52]
specificity: inhibition of A-MLV entry [2]: non-specificity

O=C(Nc1ccc(Cl)c(F)c1)C(=O)N[C@@H]1c2ccccc2C[C@@H]1O [TK-II-103, N^1-(4-chloro-3-fluorophenyl)-N^2-((1R,2S)-2-hydroxy-2,3-dihydro-1H-inden-1-yl)oxalamide]
specificity: inhibition of A-MLV entry [2]: non-specificity

Source: patent US9403763B2, “CD4-mimetic inhibitors of HIV-1 entry and methods of use thereof” (priority 2011, dated 2016)
